Reference: patent US20210403567A1, “METHODS OF TREATING CERVICAL CANCER BY ADMINISTERING A PD-1 INHIBITOR” (priority 2020, published 2021)
Several values for one entry are separate records, joined by “and”; a condition that tells them apart may be missing. Equal entries are not always repeated.

What was measured:
[1] = tested on: recurrent or metastatic cervical cancer that has progressed after platinum-containing chemotherapy; assay: Phase 3 trial, cemiplimab 350 mg IV Q3W versus investigator's choice (IC) chemotherapy: OS, PFS, ORR, DOR; conditions: for Median PFS (95% CI) / Median OS (95% CI) / Median DOR, months (95% CI): Kaplan-Meier; for PFS HR (95% CI) / OS subgroup analysis, Hazard Ratio (95% CI) / OS Hazard Ratio (95% CI): cemiplimab vs chemotherapy; for reduction in the risk of disease progression: vs chemotherapy;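 on all read-outs here: randomized trial arms, OS counted from randomization until death with censoring at last contact, PFS until first RECIST 1.1 progression or death from any cause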
cervical cancer = conditions: durable responses; cited from earlier work
[2] = Example 4 updated, SCC, listed as cemiplimab
[3] = Example 4 updated, overall population
[4] = Example 4 updated, overall population, listed as cemiplimab
[5] = overall population, listed as cemiplimab
[6] = overall population, N=304 per arm

In the case of cemiplimab, the “Median PFS (95% CI)” value [1, 2] is reported as 2.8 months, the “PFS HR (95% CI)” value ([1]; Example 4 updated, SCC) is reported as 0.705 (0.578, 0.861) and the “PFS HR (95% CI)” value [1, 2] is reported as 0.71. The “reduction in the risk of disease progression” value ([1]; Example 4 updated, SCC) was 29%, the “PFS: Number of censored patients” value [1, 3] was 51(16.8%) n (%) and the “PFS: Number of deaths” value [1, 3] was 41(13.5%) n (%). For the same substance, the “PFS: Progressive Disease” value [1, 3] was 212 (69.7%) n (%), the “Median PFS (95% CI)” value [1, 3] was 2.8 (2.6, 3.9) months and the “Median PFS (95% CI)” value [1, 4] was 2.8 months. The “PFS: Number of events” value ([1]; Example 4 updated, overall population, N=304 per arm) was 253 (83.2%) n (%), the “PFS HR (95% CI)” value [1, 3] was 0.745 (0.625, 0.890) and the “PFS HR (95% CI)” value [1, 4] was 0.75. For the same substance, the “reduction in the risk of disease progression” value [1, 3] was 25%, the “OS subgroup analysis, Hazard Ratio (95% CI)” value ([1]; Geographic region: Asia) was 0.65 (0.44-0.96) and the “OS subgroup analysis, Hazard Ratio (95% CI)” value ([1]; Geographic region: North America) was 0.52 (0.27-1.00). For the same substance, the “OS subgroup analysis, Hazard Ratio (95% CI)” value ([1]; Geographic region: Rest of World) was 0.73 (0.57-0.94), the “OS subgroup analysis, Hazard Ratio (95% CI)” value ([1]; Prior bevacizumab use: No) was 0.76 (0.58-1.00) and the “OS subgroup analysis, Hazard Ratio (95% CI)” value ([1]; Prior bevacizumab use: Yes) was 0.64 (0.48-0.86). The “Reduced risk of death (vs. chemotherapy)” value ([1]; SCC) was 27%, the “Estimated Event-Free Probability (PFS), % (95% CI)” value ([1]; SCC, 6 months) was 34.5 (28.5, 40.5) % and the “Estimated Survival Probability, % (95% CI)” value ([1]; SCC, 6 months) was 69.6 (63.3, 75.0) %. For the same substance, the “Estimated Event-Free Probability (PFS), % (95% CI)” value ([1]; SCC, 12 months) was 21.0 (15.8, 26.6) %, the “Estimated Survival Probability, % (95% CI)” value ([1]; SCC, 12 months) was 48.2 (41.3, 54.7) % and the “Estimated Event-Free Probability (PFS), % (95% CI)” value ([1]; SCC, 18 months) was 14.5 (9.7, 20.1) %. The “Estimated Survival Probability, % (95% CI)” value ([1]; SCC, 18 months) was 33.4 (26.3, 40.6) %, the “Estimated Event-Free Probability (PFS), % (95% CI)” value ([1]; SCC, 24 months) was 10.3 (5.9, 16.0) % and the “Estimated Survival Probability, % (95% CI)” value ([1]; SCC, 24 months) was 25.3 (17.8, 33.5) %. For the same substance, the “Estimated Event-Free Probability (PFS), % (95% CI)” value ([1]; SCC, 30 months) was 7.7 (3.2, 14.8) %, the “Estimated Survival Probability, % (95% CI)” value ([1]; SCC, 30 months) was 25.3 (17.8, 33.5) % and the “Median OS (95% CI)” value ([1]; SCC) was 11.1 (9.2, 13.4) months. For the same substance, the “Median OS (95% CI)” value ([1]; SCC, listed as cemiplimab) was 11.1 months, the “OS Hazard Ratio (95% CI)” value ([1]; SCC, stratified proportional hazards model) was 0.727 (0.579, 0.914) and 0.73 (0.58-0.91) and the “OS Hazard Ratio (95% CI)” value ([1]; SCC, stratified proportional hazards model, listed as cemiplimab) was 0.73. The ORR ([1]; SCC, listed as cemiplimab) was 17.6% and 18%, the “Reduced risk of death (vs. chemotherapy)” value ([1]; SCC, listed as cemiplimab) was 27% and the “OS: Number of deaths” value ([1]; adenocarcinoma/adenosquamous (AC), cemiplimab N=65, chemo N=66) was 41 (63.1%) n (%). For the same substance, the “Median observed time to response, months (range)” value ([1]; overall population) was 2.7 (1.2-11.4) months, the “Reduced risk of death (vs. chemotherapy)” value ([1]; overall population) was 31% and the “Estimated Event-Free Probability (PFS), % (95% CI)” value ([1]; overall population, 6 months) was 33.5 (28.2, 38.9) %. The “Estimated Survival Probability, % (95% CI)” value ([1]; overall population, 6 months) was 69.6 (64.0, 74.5) %, the “Estimated Event-Free Probability (PFS), % (95% CI)” value ([1]; overall population, 12 months) was 18.8 (14.4, 23.6) % and the “Estimated Survival Probability, % (95% CI)” value ([1]; overall population, 12 months) was 50.2 (44.1, 56.0) %. The “Estimated Event-Free Probability (PFS), % (95% CI)” value ([1]; overall population, 18 months) was 13.0 (9.0, 17.8) %, the “Estimated Survival Probability, % (95% CI)” value ([1]; overall population, 18 months) was 33.4 (27.2, 39.7) % and the “Estimated Event-Free Probability (PFS), % (95% CI)” value ([1]; overall population, 24 months) was 9.7 (6.0, 14.6) %. The “Estimated Survival Probability, % (95% CI)” value ([1]; overall population, 24 months) was 23.6 (17.1, 30.6) %, the “Estimated Event-Free Probability (PFS), % (95% CI)” value ([1]; overall population, 30 months) was 7.8 (3.8, 13.6) % and the “Estimated Survival Probability, % (95% CI)” value ([1]; overall population, 30 months) was 23.6 (17.1, 30.6) %. For the same substance, the “Median DOR, months (95% CI)” value ([1]; overall population) was 16.4 (12.4, NE) months, the “Median OS (95% CI)” value ([1]; overall population) was 12.0 (10.3, 13.5) months and the “Median DOR, months (95% CI)” value [1, 5] was 16 months. For the same substance, the “Median OS (95% CI)” value [1, 5] was 12 months and 12.0 months, the “Best Overall Tumor Response: Complete Response (CR)” value [1, 6] was 10 (3.3) n (%) and the “Best Overall Tumor Response: Not Evaluable (NE)” value [1, 6] was 24 (7.9) n (%). The “Best Overall Tumor Response: Partial Response (PR)” value [1, 6] was 40 (13.2) n (%), the “Best Overall Tumor Response: Progressive Disease (PD)” value [1, 6] was 105 (34.5) n (%) and the “OS: Number of censored patients” value [1, 6] was 120 (39.5%) n (%). The “OS: Number of deaths” value [1, 6] was 184 (60.5%) n (%), the “Objective Response Rate (ORR: CR + PR)” value [1, 6] was 50 (16.4%) n (%) and the “OS Hazard Ratio (95% CI)” value ([1]; overall population) was 0.685 (0.560, 0.838). The “OS Hazard Ratio (95% CI)” value [1, 5] was 0.69, the ORR [1, 5] was 16.4% and 16% and the “Reduced risk of death (vs. chemotherapy)” value [1, 5] was 31%. The “OS subgroup analysis, Hazard Ratio (95% CI)” value ([1]; prior lines: 1 line) was 0.74 (0.58-0.94), the “OS subgroup analysis, Hazard Ratio (95% CI)” value ([1]; prior lines: >1 line) was 0.72 (0.54-0.95) and the “responding patients in dose escalation” value (cervical cancer) was 2/3.
